Measured values reported in publication PMC7589233 (The Journal of Physiology, 2020).

Experiments:
TRPV1 [1] = target: T1, TRPV1 (Homo sapiens, UniProt Q8NER1); type: cell-based
TRPV1 [2] = target: T1, TRPV1; assay: whole-cell patch clamp, agonist current at […]; type: cell-based

T1 sequence (Q8NER1 whole entry): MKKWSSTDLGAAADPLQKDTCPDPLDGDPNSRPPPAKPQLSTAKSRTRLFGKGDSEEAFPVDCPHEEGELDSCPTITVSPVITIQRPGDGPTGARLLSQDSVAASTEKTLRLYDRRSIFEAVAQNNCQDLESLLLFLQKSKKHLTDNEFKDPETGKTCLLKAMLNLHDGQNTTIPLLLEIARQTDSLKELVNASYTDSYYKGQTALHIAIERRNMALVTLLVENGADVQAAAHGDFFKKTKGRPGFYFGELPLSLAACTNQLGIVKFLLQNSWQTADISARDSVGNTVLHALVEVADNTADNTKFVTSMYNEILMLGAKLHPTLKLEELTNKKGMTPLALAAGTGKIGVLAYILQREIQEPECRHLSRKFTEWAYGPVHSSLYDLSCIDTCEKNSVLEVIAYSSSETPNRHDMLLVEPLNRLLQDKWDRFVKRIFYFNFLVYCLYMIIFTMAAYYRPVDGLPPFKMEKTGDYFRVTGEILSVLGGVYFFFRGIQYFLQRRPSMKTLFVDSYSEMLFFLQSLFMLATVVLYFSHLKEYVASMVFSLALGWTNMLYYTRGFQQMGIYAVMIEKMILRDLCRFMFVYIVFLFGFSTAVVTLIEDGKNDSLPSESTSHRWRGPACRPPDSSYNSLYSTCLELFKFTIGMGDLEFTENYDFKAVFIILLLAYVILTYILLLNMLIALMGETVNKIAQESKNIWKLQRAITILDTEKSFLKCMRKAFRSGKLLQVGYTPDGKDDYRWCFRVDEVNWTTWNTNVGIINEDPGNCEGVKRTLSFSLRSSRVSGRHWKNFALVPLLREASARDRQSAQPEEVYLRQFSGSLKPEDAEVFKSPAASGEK

| IC50 (TRPV1 [1]) [nM] | SMILES | whole-cell patch clamp, agonist current at 1 μM (TRPV1 [2]) |
| --- | --- | --- |
| 34.3 ± 0.2 | C=C1CC[C@H](O)C/C1=C/C=C1\CCC[C@]2(C)[C@@H]([C@H](C)CCCC(C)(C)O)CC[C@@H]12 [25OHD, 25-Hydroxyvitamin D] |  |
|  | CCCCCCCC/C=C\CCCCCCCC(=O)NCCc1ccc(O)c(O)c1 [OLDA, N-oleoyldopamine] | OLDA elicited whole‐cell currents that displayed similar kinetics to that observed with capsaicin |
